Source: patent US20120009320A1, “COMPOSITIONS COMPRISING MONATIN AND CALCIUM” (priority 2009, published 2012)
Where a name gives a salt, the structure may show the parent alone.

How the values were obtained:
panelists = test: Sweetness matching of monatin/salt combinations in water pH 7 and citric/citrate buffer pH 3, Examples 3-5; format: in vivo, human; conditions: Monatin only (40 ppm), no salt
Method: Test and reference solutions were prepared in the same medium. The SEVs of monatin/salt combinations at the appropriate concentrations were measured and compared to the SEV of monatin measured in the absence of any salts. […] Monatin-containing test samples and sucrose references were prepared in the same medium. Based on the previous observations that the sweetness of monatin relative to sucrose is sweeter at acidic pH, this study was carried out under two pH conditions; specifically, in water at pH 7-7.5 and in a citric/citrate buffer at pH 3.0. 2R,4R-Monatin mono potassium salt was used as an illustrative form of monatin for the experiments below. All monatin solutions were prepared ‘as is’, i.e., a 40 ppm monatin solution is 40 ppm of monatin mono potassium salt. A sweetness matching procedure was adopted. […] Each test sample was either monatin control or monatin plus designated salt at the stated concentration. Panelists were instructed to taste the test sample and then to identify the reference sample that matched the perceived sweetness of the test sample. If the sweetness of the test sample was judged to fall between that of two references, panelists were instructed to estimate sweetness to one decimal point. Panelists evaluated each sample in duplicate. Results for each test sample were averaged. […] The five samples were tested at pH 7 (water medium) and at pH 3 (citric/citrate buffer). […] The weight percent of calcium in the salt is different for each of the calcium salts. As such, the weight percent of the calcium salt in each sample is calculated in order to determine how much salt is needed to deliver 1200 ppm of calcium cations. […] The weight percent of the other calcium salts is similarly calculated based on the molar weight percent of calcium in the calcium salt. […] The samples were created at pH 3 and pH 7. The impact of other metal ions, specifically potassium and magnesium, (i.e. […] These ions were tested in the form and concentrations found in cow's milk.

[1] = Sweetness match of monatin-sweetened chocolate milk to 10% sucrose target; format: in vivo
Method: A chocolate milk composition sweetened with 42 DE high fructose corn syrup (HFCS) to about 10% sucrose was prepared by conventional methods common to one skilled in the art of flavored milk manufacturing to serve as a sweetness target. The amount of monatin in the five samples was about 25 ppm, about 30 ppm, about 35 ppm, about 40 ppm and about 45 ppm. Each of the five samples of monatin-sweetened milk were compared to the target milk sample containing 10% sucrose. The monatin-sweetened milk that most closely matched the sweetness of the target sucrose sample was chosen.

SMILES: NC(CC(O)(Cc1c[nH]c2ccccc12)C(=O)O)C(=O)O (stereo not drawn) [R,R-Monatin, 2R,4R-Monatin mono potassium salt]
- Sucrose Equivalency Value (panelists; pH 3.0 citric/citrate buffer): 8.6%
- Sucrose Equivalency Value (panelists; pH 7.0 water): 8.4%
- monatin concentration that most closely matched the sweetness of milk sweetened to 10% sucrose [1]: about 35 ppm
- times as sweet as sucrose [1]: about 2800 times
